Paper PMC7934871 (JCI Insight, 2021)
Non-standard residues stand in square brackets, D forms with d. No end group written: not given here. pY = N[C@@H](Cc1ccc(OP(=O)(O)O)cc1)C(=O)O

Legend:
STAT3 = STAT3 (Homo sapiens, UniProt P40763); assay: STAT3 protein stability after cycloheximide; format: cell-based; parameters: protein stability of STAT3 in HCT 116 cells; endogenous in cells; host or cells: HCT116; conditions: HCT116, 1 µM peptide pre-incubated 2 hours, 0-2 hours, Western blotting, n = 3
Procedure: (H) The protein stability of STAT3 in HCT 116 cells was measured at different time points as indicated following cycloheximide (CHX) treatment. The cells were pre-incubated with 1 µM of PS-acet.-STAT3 pept. for 2 hours before adding […] of CHX. The protein level of STAT3 was detected by Western blotting. The quantification was analyzed by protein band intensity od STAT3 and actin by ImageJ software. n= 3 independent experiments. SD is shown. Two-way ANOVA; ns, not significant.
Aftabizadeh et and Li al., Figure S5

STAT3 signaling = assay: Gene expression of STAT3 targets by quantitative PCR; format: cell-based; conditions: 1 μM, with or without IL-6 stimulation, n = 3
Procedure: Figure 8 PS-Gp130 and PS-MYC blocking peptides efficiently internalize into tumor cells to exert their functions. (A) For 1 hour 1 μM of PS-conjugated MYC (PS-MYC) and Gp130 (PS-Gp130) were incubated with cancer cells. PS-scramble MYC (PS-SC-MYC) was used as a control for PS-MYC. The peptide uptake was visualized by confocal microscopy and quantified by flow cytometry. Data are representative of 3 independent experiments (n = 3). (B) Upper panel: The binding of PS-Gp130 and STAT3 was examined by immunoprecipitation and Western blotting. PO-Gp130 was used as a control. For 4 hours prior to harvest, 1 μM of peptide was incubated with cells. […] (C) Gene expression of STAT3 targets was examined by quantitative PCR after the treatment with 1 μM of PS-Gp130 with or without IL-6 stimulation as described above. […] (D) A total of 1 μM of PS-SC-MYC or PS-MYC was incubated with cells for 48 hours before the gene expression of MYC targets was examined by quantitative PCR. […]
Total RNA was extracted from cultured or tumor tissues using RNeasy kit (QIAGEN), according to manufacturer’s instruction. After cDNA synthesis using iScript cDNA Synthesis kit (Bio-Rad), samples were analyzed using pairs of primers specific for CASP9, CASP3, CASP8, BIRC5, BCL2L1, MYC, TP53, VEGF, IL1B, SERPIN3, FGA, CDK4, CCND2, CDKN2A, CDKN2B, GADD45A, mCD274, mMmp9, and mBirc5, as indicated. […]

STAT3, sequence (P40763 whole entry): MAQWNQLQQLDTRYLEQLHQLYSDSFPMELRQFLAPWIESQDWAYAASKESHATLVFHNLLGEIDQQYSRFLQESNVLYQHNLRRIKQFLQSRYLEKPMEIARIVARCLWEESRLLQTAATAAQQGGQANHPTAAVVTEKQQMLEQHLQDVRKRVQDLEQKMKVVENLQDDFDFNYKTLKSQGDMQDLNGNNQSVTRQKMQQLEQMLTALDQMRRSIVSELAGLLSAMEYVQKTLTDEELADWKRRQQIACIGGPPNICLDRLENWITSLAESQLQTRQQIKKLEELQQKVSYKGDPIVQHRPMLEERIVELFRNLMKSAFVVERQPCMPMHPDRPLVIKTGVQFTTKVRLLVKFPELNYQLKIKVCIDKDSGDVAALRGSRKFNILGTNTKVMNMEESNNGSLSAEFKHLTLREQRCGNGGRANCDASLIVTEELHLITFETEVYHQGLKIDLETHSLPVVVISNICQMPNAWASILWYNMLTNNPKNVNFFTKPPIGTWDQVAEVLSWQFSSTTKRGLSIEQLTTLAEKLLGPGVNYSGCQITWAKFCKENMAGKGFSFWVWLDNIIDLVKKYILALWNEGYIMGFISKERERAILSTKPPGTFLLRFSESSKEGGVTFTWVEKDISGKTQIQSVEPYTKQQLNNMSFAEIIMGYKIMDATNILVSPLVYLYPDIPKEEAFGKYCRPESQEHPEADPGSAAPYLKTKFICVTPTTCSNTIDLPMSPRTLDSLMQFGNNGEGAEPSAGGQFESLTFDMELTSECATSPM

| Substance | protein stability of STAT3 (STAT3) | STAT3 signaling (gene expression of STAT3 targets) (STAT3 signaling) |
| --- | --- | --- |
| PDIPKEEAFGK685(Ac)YCRPESQEHPC-linker-T*C*C*A*T*G*A*G*C*T*T*C*C*T*G*A*T*G*C*T [PS-acet.-STAT3 peptide] | not affected |  |
| PS-Gp130: PS-conjugated Gp130 peptide (amino acids 901–910) with phospho-Tyr905 (MPKS[pY]LPQTV; also: phosphorothioate oligonucleotide conjugate; UniProt P40189 901-910, looked up, fragment) |  | significantly blocked |
